Counter-ions that a name gives are not always drawn.
Target: T1, SF9 affinity purified rat FPT (Rattus norvegicus, UniProt Q02293+Q04631)
T1 construct: made in house; host or cells: Sf9 insect cells
Assay: PFT (FPT) inhibitory activity assay, radiolabeled farnesyl pyrophosphate and biotinyl peptide, streptavidin beads
Type: biochemical
Conditions: HEPES buffer pH 7.4, 30° C., 30 minutes; read-out: FTase IC50
Outline: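 Rat FPT expressed in SF9 cells was incubated 30 minutes at 30° C. with compound (in 10% DMSO), radiolabeled farnesyl pyrophosphate and biotinylated peptide. Buffer: HEPES pH 7.4, ZnCl2 20 μM, MgCl2 and DTT 5 mM each, 0.1% PEG 8000, 5 mM potassium phosphate (also run without phosphate). Product captured on streptavidin beads in magnesium acetate/H3PO4 stop buffer.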

| Compound | IC50 [nM] |
| --- | --- |
| CCC(Cn1ccnc1)Oc1ccc2c(c1CS(=O)(=O)c1ccccc1)CCCC2=O (stereo not shown) [Compound 63n, 6-[1-(1H-Imidazol-1-ylmethyl)propoxy]-5-[(phenylsulfonyl)methyl]-3,4-dihydro-1(2H)-naphthalenone] | 7 |
| O=C1CCCc2c1ccc(O[C@H](Cn1ccnc1)c1ccccc1)c2Br [Compound 34, 6-((1S)-2-Imidazolyl-1-phenylethoxy)-5-bromo-2,3,4-trihydronaphthalen-1-one] | 25 |
| O=C1CCCc2c1ccc(OC(Cn1ccnc1)c1nccs1)c2CS(=O)(=O)c1ccccn1 (stereo not shown) [Compound 63q, 6-(2-Imidazol-1-yl-1-thiazol-2-yl-ethoxy)-5-(pyridine-2-sulfonylmethyl)-3,4-dihydro-2H-naphthalen-1-one] | 0.5 |
| O=C1CCCc2c1ccc(O[C@H](Cn1ccnc1)c1ccccc1)c2CCc1cc[n+]([O-])cc1 [Compound 26a] | 5 |
| O=C(Nc1c(O[C@H](Cn2ccnc2)c2ccccc2)ccc2c1CCCC2=O)c1ccccn1 [Compound 40, Pyridine-2-carboxylic acid [2-((S)-2-imidazol-1-yl-1-phenyl-ethoxy)-5-oxo-5,6,7,8-tetrahydro-naphthalen-1-yl]-amide] | 7.3 |
| O=C1CCC(c2ccccc2)c2cc(OC(Cn3ccnc3)c3ccccc3)ccc21 (racemic) [Compound 48, (±)-6-(2-imidazolyl-O-phenylethoxy)-4-phenyl-2,3,4-trihydronaphthalen-1-one] | 35 |
| O=C1CCCc2c1ccc(O[C@H](Cn1ccnc1)c1ccc(F)cc1F)c2CS(=O)(=O)c1ccccn1 [Compound 63j, (S)-6-[-1-(2,4-Difluoro-phenyl)-2-imidazol-1-yl-1-ethoxy]-5-(pyridin-2-ylsulfonylmethyl)-3,4-dihydro-2H-naphthalen-1-one] | 1.5 |
| CC(C)OCc1c(O[C@H](Cn2ccnc2)c2ccccc2)ccc2c1CCCC2=O [Compound 15, hydrochloride] | 0.2 |
| CCCc1c(S[C@H](Cn2ccnc2)c2ccccc2)ccc2c1CCCC2=O [Compound 62, 6-((1S)-2-imidazolyl-1-phenylethylthio)-5-propyl-2,3,4-trihydronaphthalen-1-one] | 10 |
| O=C1CCCc2c1ccc(O[C@H](Cn1ccnc1)c1ccccc1)c2COCc1ccccc1 [Compound 16, 6-((1S)-2-Imidazolyl-1-phenylethoxy)-5-[(phenylmethoxy)methyl]-2,3,4-trihydronaphthalen-1-one] | 0.8 |
| C=C(C)Cc1c(O[C@H](Cn2ccnc2)c2ccccc2)ccc2c1CCCC2=O [Compound 54, 6-((1S)-2-Imidazolyl-1-phenylethoxy)-5-(2-methylprop-2-enyl)-2,3,4-trihydronaphthalen-1-one] | 5 |
| O=C(NCc1c(O[C@H](Cn2ccnc2)c2ccccc2)ccc2c1CCCC2=O)c1ccccc1 [Compound 42i, N-[2-((S)-2-Imidazol-1-yl-1-phenyl-ethoxy)-5-oxo-5,6,7,8-tetrahydro-naphthalen-1-ylmethyl]-benzamide] | 1.5 |
| CN(Cc1c(O[C@H](Cn2ccnc2)c2ccccc2)ccc2c1CCCC2=O)c1ccccc1 [Compound 12] | 4 |
| CC(C)C(Cn1ccnc1)Oc1ccc2c(c1CS(=O)(=O)c1ccccc1)CCCC2=O (stereo not shown) [Compound 63l, 6-[1-(1H-Imidazol-1-ylmethyl)-2-methylpropoxy]-5-[(phenylsulfonyl)methyl]-3,4-dihydro-1(2H)-naphthalenone] | 5.5 |
| CC(C)S(=O)(=O)Cc1c(O[C@H](Cn2ccnc2)c2cccnc2)ccc2c1CCCC2=O [Compound 63b, 6-((S)-2-Imidazol-1-yl-1-pyridin-3-yl-ethoxy)-5-(propane-2-sulfonylmethyl)-3,4-dihydro-2H-napthalen-1-one] | 0.94 |
| C=CCc1c(O[C@H](Cn2ccnc2)c2ccccc2)ccc2c1CCC2=O [Compound 56] | 15 |
| O=C1CCCc2c1ccc(OC(Cn1ccnc1)c1cccs1)c2CS(=O)(=O)c1ccccn1 (stereo not shown) [Compound 63p, 6-(2-Imidazol-yl-1-thiophen-2-yl-ethoxy)-5-(pyridine-2-sulfonylmethyl)-3,4-dihydro-2H-naphthalen-1-one] | 0.55 |

The remaining lines, values ahead:

| IC50 [nM] | Compound |
| --- | --- |
| 0.2 | O=C(NC1CC1)c1ccccc1S(=O)(=O)Cc1c(O[C@H](Cn2ccnc2)c2ccccc2)ccc2c1CCCC2=O [Compound 225, N-Cyclopropyl-2-{[(2-{[(1S)-2-(1H-imidazol-1-yl)-1-phenylethyl]oxy}-5-oxo-5,6,7,8-tetrahydro-1-naphthalenyl)methyl]sulfonyl}benzamide] |
| 7 | Cc1cc(C)c(OCc2c(O[C@H](Cn3ccnc3)c3ccccc3)ccc3c2CCCC3=O)c(C)c1 [Compound 89, 6-((1S)-2-Imidazolyl-1-phenylethoxy)-5-[(2,4,6-trimethylphenoxy)methyl]-2,3,4-trihydronaphthalen-1-one] |
| 0.2 | C[C@H](O)CNC(=O)c1ccccc1SCc1c(O[C@H](Cn2ccnc2)c2ccccc2)ccc2c1CCCC2=O [Compound 198, N-[(2S)-2-Hydroxypropyl]-2-{[(2-{[(1S)-2-(1H-imidazol-1-yl)-1-phenylethyl]oxy}-5-oxo-5,6,7,8-tetrahydro-1-naphthalenyl)methyl]sulfanyl}benzamide] |
| 0.2 | CC[C@H](CO)NC(=O)c1ccccc1S(=O)(=O)Cc1c(O[C@H](Cn2ccnc2)c2ccccc2)ccc2c1CCCC2=O [Compound 243, N-[(1R)-1-(Hydroxymethyl)propyl]-2-{[(2-{[(1S)-2-(1H-imidazol-1-yl)-1-phenylethyl]oxy}-5-oxo-5,6,7,8-tetrahydro-1-naphthalenyl)methyl]sulfonyl}benzamide] |
| 0.2 | CC(O)CNC(=O)c1cccc(SCc2c(O[C@H](Cn3ccnc3)c3ccccc3)ccc3c2CCCC3=O)c1 (stereo partly drawn) [Compound 258, N-(2-Hydroxypropyl)-3-{[(2-{[(1S)-2-(1H-imidazol-1-yl)-1-phenylethyl]oxy}-5-oxo-5,6,7,8-tetrahydro-1-naphthalenyl)methyl]sulfanyl}benzamide] |
| 3 | O=C1CCCc2c1ccc(O[C@H](Cn1ccnc1)c1ccccc1)c2COc1cccc2cccnc12 [Compound 94] |
| 0.2 | C=CCNC(=O)c1cccc(SCc2c(O[C@H](Cn3ccnc3)c3ccccc3)ccc3c2CCCC3=O)c1 [Compound 210, N-Allyl-3-{[(2-{[(1S)-2-(1H-imidazol-1-yl)-1-phenylethyl]oxy}-5-oxo-5,6,7,8-tetrahydro-1-naphthalenyl)methyl]sulfanyl}benzamide] |
| 0.4 | C#CCNC(=O)c1ccccc1S(=O)(=O)Cc1c(O[C@H](Cn2ccnc2)c2ccccc2)ccc2c1CCCC2=O [Compound 216, 2-{[(2-{[(1S)-2-(1H-Imidazol-1-yl)-1-phenylethyl]oxy}-5-oxo-5,6,7,8-tetrahydro-1-naphthalenyl)methyl]sulfonyl}-N-(2-propynyl)benzamide] |
| 0.2 | CC[C@H](CO)NC(=O)c1cccc(SCc2c(O[C@H](Cn3ccnc3)c3ccccc3)ccc3c2CCCC3=O)c1 [Compound 246, N-[(1R)-1-(Hydroxymethyl)propyl]-3-{[(2-{[(1S)-2-(1H-imidazol-1-yl)-1-phenylethyl]oxy}-5-oxo-5,6,7,8-tetrahydro-1-naphthalenyl)methyl]sulfanyl}benzamide] |
| 0.2 | C#CCNC(=O)c1cccc(S(=O)(=O)Cc2c(O[C@H](Cn3ccnc3)c3ccccc3)ccc3c2CCCC3=O)c1 [Compound 215, 3-{[(2-{[(1S)-2-(1H-Imidazol-1-yl)-1-phenylethyl]oxy}-5-oxo-5,6,7,8-tetrahydro-1-naphthalenyl)methyl]sulfonyl}-N-(2-propynyl)benzamide] |
| 2 | O=C1CCCc2c1ccc(O[C@H](Cn1ccnc1)c1ccccc1)c2COc1ccc2c(c1)CCCC2 [Compound 73, 6-((1S)-2-Imidazolyl-1-phenylethoxy)-5-(2-5,6,7,8-tetrahydro-naphthyloxymethyl)-2,3,4-trihydronaphthalen-1-one] |
| 0.2 | C#CCNC(=O)c1ccc(SCc2c(O[C@H](Cn3ccnc3)c3ccccc3)ccc3c2CCCC3=O)cc1 [Compound 212, 4-{[(2-{[(1S)-2-(1H-Imidazol-1-yl)-1-phenylethyl]oxy}-5-oxo-5,6,7,8-tetrahydro-1-naphthalenyl)methyl]sulfanyl}-N-(2-propynyl)benzamide] |
| 0.2 | CC[C@H](CO)NC(=O)c1ccccc1SCc1c(O[C@H](Cn2ccnc2)c2ccccc2)ccc2c1CCCC2=O [Compound 244, N-[(1R)-1-(Hydroxymethyl)propyl]-2-{[(2-{[(1S)-2-(1H-imidazol-1-yl)-1-phenylethyl]oxy}-5-oxo-5,6,7,8-tetrahydro-1-naphthalenyl)methyl]sulfanyl}benzamide] |
| 0.2 | C#CCNC(=O)c1ccccc1SCc1c(O[C@H](Cn2ccnc2)c2ccccc2)ccc2c1CCCC2=O [Compound 211, 2-{[(2-{[(1S)-2-(1H-Imidazol-1-yl)-1-phenylethyl]oxy}-5-oxo-5,6,7,8-tetrahydro-1-naphthalenyl)methyl]sulfanyl}-N-(2-propynyl)benzamide] |
| 0.8 | C=CCNC(=O)c1ccc(S(=O)(=O)Cc2c(O[C@H](Cn3ccnc3)c3ccccc3)ccc3c2CCCC3=O)cc1 [Compound 206, N-Allyl-4-{[(2-{[(1S)-2-(1H-imidazol-1-yl)-1-phenylethyl]oxy}-5-oxo-5,6,7,8-tetrahydro-1-naphthalenyl)methyl]sulfonyl}benzamide] |
| 3 | O=C(NCCO)c1ccc(SCc2c(O[C@H](Cn3ccnc3)c3ccccc3)ccc3c2CCCC3=O)cc1 [Compound 174, N-(2-Hydroxyethyl)-4-{[(2-{[(1S)-2-(1H-imidazol-1-yl)-1-phenylethyl]oxy}-5-oxo-5,6,7,8-tetrahydro-1-naphthalenyl)methyl]sulfanyl}benzamide] |
| 0.2 | CC[C@H](C)CNC(=O)c1ccc(SCc2c(O[C@H](Cn3ccnc3)c3ccccc3)ccc3c2CCCC3=O)cc1 [Compound 251, 4-{[(2-{[(1S)-2-(1H-Imidazol-1-yl)-1-phenylethyl]oxy}-5-oxo-5,6,7,8-tetrahydro-1-naphthalenyl)methyl]sulfanyl}-N-[(2S)-2-methylbutyl]benzamide] |

Reference: patent publication US6943183B2 (Pfizer Inc, priority 2000, dated 2005)
